In patent publication US11285093B2, “Cosmetic uses of swertiamarin” (LUCAS MEYER COSMETICS, priority 2014, dated 2022):

Legend:
[1] = system: keratinocyte growth factor (KGF); experiment: KGF quantification by ELISA in culture medium of human adipocytes; assay type: cell-based; conditions: 0.0075% by weight of swertiamarin, 15 hours, normal human adipocytes, vs DMSO control
Procedure: A stock solution at 10% by weight of swertiamarin in DMSO was prepared. This solution was then diluted in the culture medium so as to obtain a final concentration of 0.0075% by weight of swertiamarin.
A culture of normal human adipocytes, obtained from adipocytes sampled by abdominal plastic surgery in a person, was incubated for 15 hours with the culture medium containing swertiamarin. As a negative control, a culture of adipocytes incubated for 15 hours with a culture medium without any swertiamarin but containing the same amount of DMSO was used.
At the end of the incubation, the amount of KGF was quantified in each culture medium by an ELISA test. The statistical significance of the differences between the “control” groups and the “test groups” was evaluated by variance analysis (One way Anova) followed by the Holm Sida test (p*<0.05).

human keratinocytes = experiment: Scratch assay on monolayer culture of human keratinocytes; assay type: cell-based; conditions: 72 hours
Procedure: Normal keratinocytes surgically sampled in a person were cultivated so as to obtain a monolayer culture of keratinocytes.
When confluence was attained, a lesion (“scratch”) was carried out in each cell culture so as to locally remove an equivalent amount of keratinocytes.
Each culture of keratinocytes was then incubated at 37° C. in a humid atmosphere and in the presence of 5% of CO2, in the presence of an adipocyte culture medium conditioned with swertiamarin (0.0025%; 0.005%; 0.0075% by weight), for 72 hours. The swertiamarin was introduced into the adipocyte culture medium by dilution of a stock solution at 10% in DMSO. The final amount of DMSO in the culture media is 0.15%. […]
The surface corresponding to the “lesion” (i.e. to the area where the keratinocytes were removed) was measured before (t=0) and after incubation for each cell culture from photographs obtained by optical microscopy by using the software package Image J.
The results were expressed as a percentage of re-colonized surface relative to the surface observed at t=0.
The statistical significance of the differences obtained between the groups “DMSO Control” and the groups “TGF-β Controls” was evaluated by using the t-test (***: p<0.001). […]

fibronectin = experiment: Fibronectin synthesis by normal human fibroblasts of the dermis (NHDF), ELISA; assay type: cell-based; conditions: 24 h or 48 h
Procedure: The applied test was based on the synthesis of fibronectin induced by TGF-β by cells of normal human fibroblasts of the dermis (NHDF) in a monolayer culture. The culture was produced by using as a culture medium DMEM (Eurobio, CMODME70-08) containing 10% of fetal calf serum (Eurobio, CVFSV00-0U), 1% of antibiotics (penicillin/streptomycin, Eurobio, CABPES01-OU) and 1% of L-glutamine (Eurobio, CSTGLUOO-OU), at a temperature of 37° C. under 5% of CO2 and 95% of humidity.
The cells were then sown, in the presence of complete DMEM, in microplates in an amount of 2.5*10^4 cells per well and then incubated at a temperature of 37° C. under 5% of CO2 and 95% of humidity. The culture medium was replaced after 24 hours in order to bring the cells to a quiescent state.
Next, the cells were incubated in the presence of TGF-β or swertiamarin for 24 h or 48 h. The cell supernatants were then collected in order to quantify fibronectin by an ELISA test (BMS028, Ebiosciences). The cell viability level was also determined by the standard MTT test. As a control, cells were incubated under the same conditions but in the absence of TGF-β and of swertiamarin (control).
The results are expressed as a percentage of the amount of fibronectin produced per mL relative to the amount of fibronectin produced by the group of control experiments.

Procedure for human skin explants: 21 skin explants with a diameter of 10 mm were prepared from these samples, among which 12 are skin explants without any adipose tissue (epidermis+dermis explant) and 9 are full skin explants (epidermis+dermis+hypodermis). The explants are maintained alive in a BEM medium at 37° C. in the presence of a humid atmosphere with 5% of CO2. The skin explants were distributed into three groups: • Group 1: a cream containing swertiamarin (SWT) in an amount of 0.025% was applied at days 0, 1, 2, 3, 6 and 7 of the incubation, to the surface of the skin explants by means of a spatula (1 μl in the morning and 1 μl in the evening), • Group 2: a placebo cream (free of swertiamarin) was applied on days 0, 1, 2, 3, 6 and 7 of the incubation, to the surface of the skin explants by means of a spatula (1 μl in the mornings and 1 μl in the evenings), • Group 3: this control group was maintained alive without any treatment (without application of a placebo cream or of cream based on swertiamarin).
On day 9, the skin explants are recovered, chemically bound in a formol solution for 24 hours, dehydrated, impregnated with paraffin and then infiltrated with resin according to the SOP H-53 protocol. Fine cuts are then made in each explant and observed by optical microscopy after staining.

Substance	increase in the average amount of KGF in the culture medium [1]	increase of the surface area re-colonized by the keratinocytes vs DMSO Control (human keratinocytes; adipocyte culture medium conditioned with 0.0025% swertiamarin)	increase of the amount of fibronectin vs control (fibronectin; 0.005% swertiamarin)	morphological alteration of treated skin explants (human skin explants)	cell re-colonization (re-colonized surface) vs DMSO Control (human keratinocytes; TGF-β 10 ng/ml, p<0.001)	production of fibronectin vs control (fibronectin; TGF-β)
Swertiamarin	about 16.4%	+64.6%	more than 171%	do not exhibit any notable morphological alteration		
TGF-β [reference compound]					+124.1%	+64%
